Laboratory results as given in article PMC2765047 (Journal of medicinal chemistry, 2009).
pEC50: −log10 of the molar value. Where two headings read alike, the source gives them in different places.

Legend:
HSV-2 = HSV-2 antiviral assay; assay type: cell-based, herpes simplex virus 2; conditions: human foreskin fibroblast (HFF) culture
HSV-1 = HSV-1 antiviral assay; assay type: cell-based, herpes simplex virus 1; conditions: human foreskin fibroblast (HFF) culture
in vitro = assay type: cell-based; conditions: human
[1] = Visual cytotoxicity in uninfected HFF's used in plaque reduction assays; assay type: cell-based; conditions: human
ADA from calf intestine = molecular target: T1, ADA from calf intestine (Bos taurus, UniProt P56658); assay: Adenosine deaminase; assay type: biochemical
T1 sequence (P56658 1-363): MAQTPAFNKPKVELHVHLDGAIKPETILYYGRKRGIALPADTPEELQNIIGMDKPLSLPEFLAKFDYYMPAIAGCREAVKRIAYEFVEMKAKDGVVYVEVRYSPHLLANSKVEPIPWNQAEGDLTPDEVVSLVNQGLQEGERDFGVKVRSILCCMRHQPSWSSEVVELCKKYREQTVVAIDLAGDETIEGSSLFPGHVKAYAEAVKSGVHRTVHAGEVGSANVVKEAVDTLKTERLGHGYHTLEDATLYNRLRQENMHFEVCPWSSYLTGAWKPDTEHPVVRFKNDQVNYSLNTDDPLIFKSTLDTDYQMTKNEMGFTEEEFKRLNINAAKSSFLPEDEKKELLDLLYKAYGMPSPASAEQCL

HCMV = conditions: ref [1]; cited from earlier work
[2] = Cytotoxicity by neutral red uptake; assay type: cell-based; conditions: human
HFF cells [3] = conditions: read-out: CC50 HCMV/HFF Towne; visual cytotoxicity in uninfected HFF's; ref [2]; cited from earlier work
Akata cells = conditions: read-out: CC50 EBV/Akata, ref [28]; cited from earlier work
HFF cells [4] = conditions: read-out: CC50 HCMV/HFF AD169; cytotoxicity by neutral red uptake; ref [2]; cited from earlier work
HCMV Towne = assay: HCMV plaque reduction assay, Towne strain, in HFF cells; assay type: cell-based, human cytomegalovirus (HCMV); conditions: Human betaherpesvirus 5, HFF, read-out: EC50 Virus Strain Towne

Structure (SMILES) | CC50 [1] | CC50 [2] | other results
Nc1nc2c(ncn2/C=C2/C[C@H]2[C@@H](O)CO)c(=O)[nH]1 [ent-12b] |  |  | activity against HSV-2 (in words) (HSV-2): inactive; activity against HSV-1 (in words) (HSV-1): inactive; CC50 (in vitro): 284 µM
Nc1ncnc2c1ncn2/C=C1/C[C@H]1[C@H](O)CO [ent-14a] | > 100 µM |  | substrate activity toward ADA (in words) (ADA from calf intestine): resistant to deamination
Nc1nc2c(ncn2/C=C2\C[C@H]2[C@@H](O)CO)c(=O)[nH]1 [ent-13b] | > 100 µM |  | 
Nc1c2ncnc-2ncn1/C=C1\CC1CO (centres unmarked) [Compound 1a, synadenol] |  |  | activity against HCMV (in words) (HCMV): effective
Nc1nc2c(ncn2/C=C2/C[C@@H]2[C@H](O)CO)c(=O)[nH]1 [Compound 12b, (+)-9-{(Z)-{(S)-2-[(S)-1,2-Dihydroxyethyl)cyclopropylidene]methyl}guanine] | > 100 µM | > 300 µM | 
Nc1ncnc2c1ncn2/C=C1\C[C@@H]1[C@@H](O)CO [Compound 15a] | > 100 µM | > 300 µM | 
Nc1nc2c(ncn2/C=C2/C[C@H]2[C@H](O)CO)c(=O)[nH]1 [ent-14b] | > 300 µM | > 300 µM | 
Nc1ncnc2c1ncn2/C=C1\C[C@H]1[C@H](O)CO [ent-15a] | > 100 µM |  | 
Nc1ncnc2c1ncn2/C=C1/C[C@H]1[C@@H](O)CO [ent-12a] | > 100 µM | 194 µM | substrate activity toward ADA (in words) (ADA from calf intestine): resistant to deamination
Nc1ncnc2c1ncn2/C=C1/C[C@@H]1[C@@H](O)CO [Compound 14a] | > 100 µM |  | 
Nc1nc2c(ncn2/C=C2/CC2(CO)CO)c(=O)[nH]1 [Compound 3b, cyclopropavir] |  |  | CC50 (HFF cells [3]): > 100 µM; CC50 (Akata cells): 46 µM; CC50 (HFF cells [4]): > 100 µM; pEC50 (HCMV Towne): 6.22; activity against HCMV (in words) (HCMV): highly effective
Nc1nc2c(ncn2/C=C2\C[C@@H]2[C@@H](O)CO)c(=O)[nH]1 [Compound 15b] | > 100 µM | > 300 µM | 
Nc1nc2c(ncn2COC(CO)CO)c(=O)[nH]1 [Ganciclovir, ganciclovir] |  |  | pEC50 (HCMV Towne): 5.70
Nc1nc(O)c2ncn(/C=C3/CC3CO)c2n1 (centres unmarked) [Compound 1b] |  |  | activity against HCMV (in words) (HCMV): highly effective
Nc1nc2c(ncn2/C=C2\C[C@@H]2[C@H](O)CO)c(=O)[nH]1 [Compound 13b] | > 100 µM |  | 
Nc1ncnc2c1ncn2/C=C1/C[C@@H]1[C@H](O)CO [Compound 12a] | > 100 µM | > 300 µM | 
Nc1ncnc2c1ncn2/C=C1\C[C@@H]1[C@H](O)CO [Compound 13a] |  | > 300 µM | 
Nc1ncnc2c1ncn2C=C1CC1(CO)CO [Compound 3a] |  |  | activity against HCMV (in words) (HCMV): effective
Nc1nc2c(ncn2/C=C2/C[C@@H]2[C@@H](O)CO)c(=O)[nH]1 [Compound 14b] | > 100 µM | > 300 µM | 
Nc1ncnc2c1ncn2/C=C1\C[C@H]1[C@@H](O)CO [ent-13a] | > 100 µM |  | 
